Measured values taken from patent publication US8309556B2, “Use of compounds derived from pyrimidinetrione as acetyl cholinesterase inhibitors, compositions containing said derivatives, and the uses thereof” (priority 2005, dated 2012).
Read-outs that look alike come from different tables or passages of the source.

Columns and labels:
[1] = tested on: larvae of mosquitoes Culex pipiens sensitive to propoxur; assay: Insecticidal activity: larval mortality, propoxur-sensitive larvae; format: in vivo; conditions: stage-4 larvae, mortality after 24 hours, log-Probit, read-out: LD50, Sensitive larvae
Description: (§1) The insecticidal activity of the compounds according to the invention denoted in table IV below is tested on larvae of mosquitoes Culex pipiens sensitive or resistant to the action of propoxur.
(§2) The larvae resistant or sensitive to propoxur are incubated in 24-well plates, at the rate of 15 stage-4 larvae per well, in 1 ml of tap water comprising different concentrations of compounds ranging from 0.31 to 50 μg/ml.
(§3) Larval mortality is measured after incubating for 24 hours. […] Cahiers ORSTOM, série Entomologie médicale et Parasitologie, 23(2), 117-121; Raymond, M., Prato, G. and Ratsira, D. (1993). PROBIT, CNRS-UMII, Licence L93019. Avenix, 34680 St. Georges d'Orques, France.), the homogeneity of the dose/response being tested. The effectiveness of the different compounds with regard to the resistant larvae, relative to the sensitive larvae, is estimated by the sensitive/resistant ratio.

[2] = tested on: larvae of mosquitoes Culex pipiens resistant to propoxur; assay: Insecticidal activity: larval mortality, propoxur-resistant larvae; format: in vivo; conditions: for LC50: Culex pipiens, stage-4 larvae, mortality after 24 hours, log-Probit, read-out: LD50, Resistant larvae; for Sensitive/resistant ratio: LD50 larval mortality, sensitive relative to resistant
Description: as §1, §2, §3

[3] = tested on: AChE1 activity of extracts of Culex pipiens larvae resistant to propoxur (G119S-mutated AChE); assay: biochemical; conditions: IC50 on larval extracts, sensitive relative to resistant
Description: (§4) The inhibitory properties of the compounds of the preceding table I are tested with regard to the AChE activity by either using a normal or G119S-mutated recombinant AChE or using extracts of larvae of mosquitoes which are sensitive (carrying normal AChE) or resistant (carrying G119S-mutated AChE) to organophosphorus compounds and carbamates.
(§5) The AChE activity is measured using the method described by Bourguet et al., Pest Biochem. Physiol., 1996, 55, 122-128, and which refers to the spectroscopic method described by Ellman G. L. et al. (Biochem. Pharmacol., 1961, 7, 88-95) using acetylthiocholine as substrate.
(§6) Larvae of Culex pipiens mosquitoes which are sensitive or resistant to propoxur are milled in 400 μl of 0.25M phosphate buffer comprising 1% Triton X100. The homogenates are centrifuged at 10 000 rpm for 3 minutes.
(§7) The effectiveness of the various compounds with regard to the resistant larvae, relative to the sensitive larvae, is estimated by the sensitive/resistant ratio.

[4] = target: T1, AChE1 activity of extracts of Culex pipiens larvae resistant to propoxur (G119S-mutated AChE) (Culex pipiens, UniProt Q86GC8, G247S); assay: biochemical
T1 construct: from tissue; host or cells: whole larvae of propoxur-resistant Culex pipiens, Triton X100 homogenate supernatant
Description: as §4, §5, §6, §7

[5] = target: T2, AChE1 activity of extracts of Culex pipiens larvae sensitive to propoxur (normal AChE) (Culex pipiens, UniProt Q86GC8); assay: Inhibition of AChE1 activity in extracts of propoxur-sensitive mosquito larvae; format: biochemical
T2 construct: from tissue; host or cells: whole larvae of propoxur-sensitive Culex pipiens, Triton X100 homogenate supernatant
Description: as §4, §5, §6, §7

[6] = tested on: G119S-mutated recombinant Culex pipiens AChE1; assay: biochemical; conditions: IC50 normal AChE1 relative to mutated AChE1, recombinant
Description: as §4, §5
(§8) The inhibitory properties of the compounds according to the invention with regard to the activity of a G119S-mutated or normal recombinant Culex pipiens AChE1 are tested according to protocol described by Weill et al., Nature, 2003, 423, 136-137.
(§9) Each compound according to the invention is tested at different concentrations on lysates of Drosophile S2 cells transfected with an empty expression vector or an expression vector expressing normal or mutated AChE1. After expression, the cells are centrifuged for 15 minutes at 14 000 rpm and are subsequently lysed in a 0.25 M phosphate buffer comprising 1% Triton X100.
(§10) 100 μl of supernatant originating from the centrifuging of the cell lysates at 10 000 rpm for 3 minutes are incubated for 15 minutes with 10 μl of each compound according to the invention at various concentrations.
(§11) The effectiveness of the various compounds with regard to the mutated AChE activity, relative to that of the normal AChE, is estimated by the sensitive/insensitive ratio.

[7] = target: T3, G119S-mutated recombinant Culex pipiens AChE1 (Culex pipiens, UniProt Q86GC8, G247S); assay: biochemical
T3 construct: made in house; host or cells: Drosophila S2 cells (crude lysate supernatant)
Description: as §4, §5, §8, §9, §10, §11

[8] = target: T4, normal recombinant Culex pipiens AChE1 (Culex pipiens, UniProt Q86GC8); assay: Inhibition of normal recombinant AChE1 (lysates of transfected Drosophile S2 cells, Ellman method); format: biochemical
T4 construct: made in house; host or cells: Drosophila S2 cells (crude lysate supernatant)
Description: as §4, §5, §8, §9, §10, §11

[9] = extracts of propoxur-sensitive larvae, 15 minutes incubation, read-out: IC50, Sensitive larvae

Work on Cc1ccc(C=C2C(=O)NC(=O)N(c3ccc(Cl)cc3)C2=O)o1 [(6), 1-(4-chlorophenyl)-5-[(5-methyl-2-furyl)methylene]-2,4,6(1H,3H,5H)-pyrimidinetrione] yielded an LC50 [1] of 762 µM, an LC50 [2] of 192 µM and a Sensitive/resistant ratio [2] of 4.0. It also gave a Sensitive/resistant ratio [3] of 12.0, an IC50 [4] of 27 µM and an IC50 [5, 9] of 330 µM. It also gave a Sensitive/insensitive ratio [6] of 1.63, an IC50 [7] of 43 µM and an IC50 [8] of 70 µM.

With C=CCN1C(=O)C(=Cc2ccc(C)o2)C(=O)NC1=S [(8), 1-allyl-5-[(5-methyl-2-furyl)methylene]-2-thioxodihydro-4,6(1H,5H)-pyrimidinetrione] the LC50 [1] was 223 µM, the LC50 [2] was 123 µM and the Sensitive/resistant ratio [2] was 1.8. It also gave a Sensitive/resistant ratio [3] of 1.8, an IC50 [4] of 51 µM and an IC50 [5, 9] of 91.6 µM. The Sensitive/insensitive ratio [6] was 2.08, the IC50 [7] was 29 µM and the IC50 [8] was 61 µM.

CNC(=O)Oc1ccccc1OC(C)C [Propoxur, propoxur, reference compound] gave an LC50 [1] of 1.7 µM, an LC50 [2] of 2700 µM and a Sensitive/resistant ratio [2] of 0.00063. It also gave a Sensitive/resistant ratio [3] of 0.00015, an IC50 [4] of 31800 µM and an IC50 [5] of 4.9 µM. The Sensitive/insensitive ratio [6] was 0.0014, the IC50 [7] was 6350 µM and the IC50 [8] was 9 µM.
